*1 amine or outer side, *2 acyl side, *3 side chain or, on linkers, in order; H or OH if unused. Where a SMILES comes first, the peptide text is derived from it. [ ]: non-standard residue; d: D form. The star is where a group is joined. ξ: configuration not given here. Butyryl(4-indol-3-yl) = O=C(CCCc1c[nH]c2ccccc12)*; Acetyl(2-naphthyloxy) = O=C(COc1ccc2ccccc2c1)*; Dibenzylacetyl = O=C(C(Cc1ccccc1)Cc1ccccc1)*; X5 = O=C(C(Cc1cccc2ccccc12)Cc1cccc2ccccc12)*; ξNaproxenoyl = COc1ccc2cc(C(C)C(=O)*)ccc2c1; Acetyl(2-naphthyl) = O=C(Cc1ccc2ccccc2c1)*; 2Naphthoyl = O=C(c1ccc2ccccc2c1)*; NMeI = CC[C@H](C)[C@H](NC)C(=O)O; X1 = O=C(Cc1ccc(N[*:1])cc1)[*:2]; Cha = N[C@@H](CC1CCCCC1)C(=O)O; 4Abz = Nc1ccc(C(=O)O)cc1; Aib = CC(C)(N)C(=O)O; Inp = O=C(O)C1CCNCC1; Ava = NCCCCC(=O)O; βAla = NCCC(=O)O; X3 = CCC(C)CN*
Target: T1, specific ANP receptor sites on BASM or BAE cells (Bos taurus, UniProt P10730)
T1 construct: specific receptor sites on BASM or BAE cells; endogenous in cells; host or cells: cultured BASM and BAE cells
T1 sequence (P10730 42-537): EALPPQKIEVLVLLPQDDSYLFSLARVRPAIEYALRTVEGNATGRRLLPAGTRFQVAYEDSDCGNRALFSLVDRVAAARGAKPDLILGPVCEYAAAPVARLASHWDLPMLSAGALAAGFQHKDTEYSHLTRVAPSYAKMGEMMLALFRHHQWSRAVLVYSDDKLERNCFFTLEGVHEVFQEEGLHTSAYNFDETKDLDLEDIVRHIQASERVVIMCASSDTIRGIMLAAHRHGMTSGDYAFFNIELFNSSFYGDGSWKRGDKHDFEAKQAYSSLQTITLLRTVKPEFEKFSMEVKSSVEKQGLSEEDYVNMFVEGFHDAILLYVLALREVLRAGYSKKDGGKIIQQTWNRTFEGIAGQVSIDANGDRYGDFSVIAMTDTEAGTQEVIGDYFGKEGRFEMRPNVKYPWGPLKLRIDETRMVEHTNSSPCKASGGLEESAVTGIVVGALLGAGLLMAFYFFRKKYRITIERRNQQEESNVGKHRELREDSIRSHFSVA
Test: Competitive displacement receptor binding of (125I)-rANP(126-150) on cultured cells
Parameters: species or system bovine
Details: for Ki(app): concentration of unlabeled peptide displacing 50% of maximal binding of 0.5 nM (125I)-rANP(126-150), BASM or BAE cells
Description: Analogous "competitive displacement" receptor binding assays are considered commonplace in the art for examining specific ligand-receptor interactions.
Assuming these ANP analogs act at one or more ANP receptor sites, then increased receptor affinity should reflect increased biological potency.

SMILES	receptor binding / activity as judged by Ki, in words	Ki(app) [nM]
CCNC(=O)CNC(=O)[C@@H](NC(=O)[C@H](CCCNC(=N)N)NC(=O)[C@H](CC(=O)O)NC(=O)[C@@H](NC(=O)[C@H](CCCNC(=N)N)NC(=O)CNC(=O)CNC(=O)Cc1ccc2ccccc2c1)[C@@H](C)CC)[C@@H](C)CC [AP524, (2-NA)--G--G--R--I--D--R--I--G--NH-(ethyl)] ({Acetyl(2-naphthyl)}-GGRIDRIG-NHEt)	–	2.76
CC[C@H](C)[C@H](NC(=O)[C@H](CCCNC(=N)N)NC(=O)[C@H](CC(=O)O)NC(=O)[C@@H](NC(=O)[C@H](CCCNC(=N)N)NC(=O)CNC(=O)CNC(=O)Cc1ccc2ccccc2c1)[C@@H](C)CC)C(=O)NCC(=O)NC(C)(C)C(N)=O [AP525, (2-NA)--G--G--R--I--D--R--I--G--(Aib)--NH2] ({Acetyl(2-naphthyl)}-GGRIDRIG[Aib]-NH2)	–	22.75
CC[C@H](C)[C@H](NC(=O)[C@H](CCCNC(=N)N)NC(=O)[C@H](CC(=O)O)NC(=O)[C@@H](NC(=O)[C@H](CCCNC(=N)N)NC(=O)CNC(=O)CNC(=O)Cc1ccc2ccccc2c1)[C@@H](C)CC)C(=O)NCCCCC(N)=O [AP526, (2-NA)--G--G--R--I--D--R--I--NH--(CH2)4 --CONH2] ({Acetyl(2-naphthyl)}-GGRIDRI[Ava]-NH2)	–	50.5
CC[C@H](C)[C@H](NC(=O)[C@H](CCCNC(=N)N)NC(=O)[C@H](CC(=O)O)NC(=O)[C@@H](NC(=O)[C@H](CCCNC(=N)N)NC(=O)CNC(=O)CNC(=O)C(C)c1ccc2cc(OC)ccc2c1)[C@@H](C)CC)C(=O)NCC(=O)N[C@@H](C)C(N)=O (stereo partly drawn) [AP528, 2(2'-(6'-MeONAP))--G--G--R--I--D--R--I--G--A--NH2] (ξNaproxenoyl-GGRIDRIGA-NH2)	–	22.5
CCNC(=O)CNC(=O)[C@H]([C@@H](C)CC)N(C)C(=O)[C@H](CCCNC(=N)N)NC(=O)[C@H](CC(=O)O)NC(=O)[C@@H](NC(=O)[C@H](CCCNC(=N)N)NC(=O)CNC(=O)CNC(=O)Cc1ccc2ccccc2c1)[C@@H](C)CC [AP529] ({Acetyl(2-naphthyl)}-GGRIDR[NMeI]G-NHEt)	–	87.3
CCNC(=O)CNC(=O)[C@@H](NC(=O)[C@H](CCCNC(=N)N)NC(=O)[C@H](CC(=O)O)NC(=O)[C@@H](NC(=O)[C@H](CCCNC(=N)N)NC(=O)CCCCNC(=O)Cc1ccc2ccccc2c1)[C@@H](C)CC)[C@@H](C)CC [AP530, (2-NA)--NH(CH2)4 CO--R--I--D--R--I--G--NH--(ethyl)] ({Acetyl(2-naphthyl)-Ava}-RIDRIG-NHEt)	–	50.5
CC[C@H](C)[C@H](NC(=O)[C@H](CCCNC(=N)N)NC(=O)[C@H](CC(=O)O)NC(=O)[C@@H](NC(=O)[C@H](CCCNC(=N)N)NC(=O)CNC(=O)CCCc1c[nH]c2ccccc12)[C@@H](C)CC)C(=O)NCC(=O)N[C@@H](C)C(N)=O [AP531, (3-IB)--G--R--I--D--R--I--G--A--NH2)] ({Butyryl(4-indol-3-yl)}-GRIDRIGA-NH2)	–	9.34
CC[C@H](C)[C@H](NC(=O)[C@H](CCCNC(=N)N)NC(=O)[C@H](CC(=O)O)NC(=O)[C@@H](NC(=O)[C@H](CCCNC(=N)N)NC(=O)CCNC(=O)CCCc1c[nH]c2ccccc12)[C@@H](C)CC)C(=O)NCC(=O)N[C@@H](C)C(N)=O [AP532, (3-IB)--beta--Ala--R--I--D--R--I--G--A--NH2)] ({Butyryl(4-indol-3-yl)-βAla}-RIDRIGA-NH2)	–	11.95
CC[C@H](C)[C@H](NC(=O)[C@H](CCCNC(=N)N)NC(=O)[C@H](CC(=O)O)NC(=O)[C@@H](NC(=O)[C@H](CCCNC(=N)N)NC(=O)CNC(=O)CNC(=O)C(Cc1cccc2ccccc12)Cc1cccc2ccccc12)[C@@H](C)CC)C(=O)NCC(=O)N[C@@H](C)C(N)=O [AP533] (X5-GGRIDRIGA-NH2)	–	52.0
CC[C@H](C)[C@H](NC(=O)[C@H](CCCNC(=N)N)NC(=O)[C@H](CC(=O)O)NC(=O)[C@@H](NC(=O)[C@H](CCCNC(=N)N)NC(=O)CNC(=O)CNC(=O)C(Cc1ccccc1)Cc1ccccc1)[C@@H](C)CC)C(=O)NCC(=O)N[C@@H](C)C(N)=O [AP534, (DBA)--G--G--R-- I--D--R--I--G--A--NH2)] (Dibenzylacetyl-GGRIDRIGA-NH2)	–	8.81
CC[C@H](C)[C@H](NC(=O)[C@H](CCCNC(=N)N)NC(=O)[C@H](CC(=O)O)NC(=O)[C@@H](NC(=O)[C@H](CCCNC(=N)N)NC(=O)C1CCN(C(=O)Cc2ccc3ccccc3c2)CC1)[C@@H](C)CC)C(N)=O [AP538] ({Acetyl(2-naphthyl)-Inp}-RIDRI-NH2)	–	9.9
CC[C@H](C)[C@H](NC(=O)[C@H](CCCNC(=N)N)NC(=O)[C@H](CC(=O)O)NC(=O)[C@@H](NC(=O)[C@H](CCCNC(=N)N)NC(=O)C1CCN(C(=O)COc2ccc3ccccc3c2)CC1)[C@@H](C)CC)C(N)=O [AP539] ({Acetyl(2-naphthyloxy)-Inp}-RIDRI-NH2)	–	9.1
CCC(C)CNC(=O)[C@H](CCCNC(=N)N)NC(=O)[C@H](CC(=O)O)NC(=O)[C@@H](NC(=O)[C@H](CCCNC(=N)N)NC(=O)C1CCN(C(=O)Cc2ccc3ccccc3c2)CC1)[C@@H](C)CC (some centres unmarked) [AP557] ({Acetyl(2-naphthyl)-Inp}-RIDR-X3)	–	41.7
CC[C@H](C)[C@H](NC(=O)[C@H](CCCNC(=N)N)NC(=O)[C@H](CC(=O)O)NC(=O)[C@@H](NC(=O)[C@H](CCCNC(=N)N)NC(=O)c1ccc(NC(=O)Cc2ccc3ccccc3c2)cc1)[C@@H](C)CC)C(N)=O [AP560] ({Acetyl(2-naphthyl)-4Abz}-RIDRI-NH2)	–	68.8
CC[C@H](C)[C@H](NC(=O)[C@H](CCCNC(=N)N)NC(=O)[C@H](CC(=O)O)NC(=O)[C@@H](NC(=O)[C@H](CCCNC(=N)N)NC(=O)C1CCN(C(=O)c2ccc3ccccc3c2)CC1)[C@@H](C)CC)C(N)=O [AP562] ({2Naphthoyl-Inp}-RIDRI-NH2)	–	22.4
CC[C@H](C)[C@H](NC(=O)[C@H](CCCNC(=N)N)NC(=O)[C@H](CC(=O)O)NC(=O)[C@@H](NC(=O)[C@H](CCCNC(=N)N)NC(=O)Cc1ccc(NC(=O)Cc2ccc3ccccc3c2)cc1)[C@@H](C)CC)C(N)=O [AP564] ({Acetyl(2-naphthyl)}-[X1]RIDRI-NH2)	–	10.1

Second part, the compound after the results:

receptor binding / activity as judged by Ki, in words	Ki(app) [nM]	SMILES
very low, if any, activity	> 400	CC[C@H](C)[C@H](NC(=O)[C@H](CCCNC(=N)N)NC(=O)CNC(=O)CNC(=O)Cc1ccc2ccccc2c1)C(=O)N[C@@H](CC(=O)O)C(=O)N[C@@H](CCCNC(=N)N)C(=O)N1CCC[C@H]1C(N)=O [AP519, (2-NA)--G--G--R--I--D--R--P--NH2] ({Acetyl(2-naphthyl)}-GGRIDRP-NH2)
very low, if any, activity	400	CC[C@H](C)[C@H](NC(=O)[C@H](CCCNC(=N)N)NC(=O)[C@H](CC(=O)O)NC(=O)[C@H](Cc1ccccc1)NC(=O)[C@H](CCCNC(=N)N)NC(=O)CNC(=O)CNC(=O)Cc1ccc2ccccc2c1)C(N)=O [AP521, (2-NA)--G--G--R--F--D--R--I--NH2] ({Acetyl(2-naphthyl)}-GGRFDRI-NH2)
–	23.0	CC[C@H](C)[C@H](NC(=O)[C@H](CCCNC(=N)N)NC(=O)[C@H](CC(=O)O)NC(=O)[C@@H](NC(=O)[C@H](CCC(N)=O)NC(=O)CNC(=O)CNC(=O)Cc1ccc2ccccc2c1)[C@@H](C)CC)C(N)=O [AP522, (2-NA)--G--G--Q--I--D--R--I--NH2] ({Acetyl(2-naphthyl)}-GGQIDRI-NH2)
–	36.7	CC[C@H](C)[C@H](NC(=O)[C@H](CCCNC(=N)N)NC(=O)[C@H](CC(=O)O)NC(=O)[C@@H](NC(=O)[C@H](CCCCN)NC(=O)CNC(=O)CNC(=O)Cc1ccc2ccccc2c1)[C@@H](C)CC)C(N)=O [AP523, (2-NA)--G--G--K--I--D--R--I--NH2] ({Acetyl(2-naphthyl)}-GGKIDRI-NH2)
–	22.5	CC[C@H](C)[C@H](NC(=O)[C@H](CCCNC(=N)N)NC(=O)[C@H](CC(=O)O)NC(=O)[C@H](CC1CCCCC1)NC(=O)[C@H](CCCNC(=N)N)NC(=O)CNC(=O)CNC(=O)Cc1ccc2ccccc2c1)C(N)=O [AP527, (2-NA)--G--G--R--Cha--D--R--I--NH2] ({Acetyl(2-naphthyl)}-GGR[Cha]DRI-NH2)
–	14.0	CC[C@H](C)[C@H](NC(=O)[C@H](CCCNC(=N)N)NC(=O)CNC(=O)CNC(=O)Cc1ccc2ccccc2c1)C(=O)N[C@@H](CC(=O)O)C(=O)N[C@@H](CCCNC(=N)N)C(=O)N[C@@H](C(N)=O)C(C)C [AP535, (2-NA)--G--G--R--I--D--R--V^ --NH2)] ({Acetyl(2-naphthyl)}-GGRIDR[dV]-NH2)
–	106.4	CC[C@H](C)[C@H](NC(=O)[C@H](CCCNC(=N)N)NC(=O)CNC(=O)CNC(=O)Cc1ccc2ccccc2c1)C(=O)N[C@@H](CC(=O)O)C(=O)N[C@@H](CCCNC(=N)N)C(=O)N[C@H](CC(C)C)C(N)=O [AP536, (2-NA)--G--G--R--I--D--R--L^ --NH2)] ({Acetyl(2-naphthyl)}-GGRIDR[dL]-NH2)
–	> 160	CC[C@H](C)[C@H](NC(=O)[C@H](CCCNC(=N)N)NC(=O)CNC(=O)CNC(=O)Cc1ccc2ccccc2c1)C(=O)N[C@@H](CC(=O)O)C(=O)N[C@@H](CCCNC(=N)N)C(=O)N[C@H](Cc1ccccc1)C(N)=O [AP537, (2-NA)--G--G--R--I--D--R--F^ --NH2)] ({Acetyl(2-naphthyl)}-GGRIDR[dF]-NH2)
